Assay results reported in patent publication EP4782437A1, “HETEROARYL COMPOUND, AND PREPARATION METHOD THEREFOR AND USE THEREOF IN MEDICINE” (Jiangsu Hengrui Pharmaceuticals Co., Ltd., priority 2023, dated 2025).

Target: hERG potassium channels (Homo sapiens, UniProt Q12809)
Assay: hERG channel inhibition, automated patch-clamp in HEK293-hERG stable transfected cell line
Conditions: read-out: IC50 values of blocking effects on hERG potassium currents, whole-cell patch-clamp, tail currents

Chain of hERG potassium channels (Q12809 whole entry): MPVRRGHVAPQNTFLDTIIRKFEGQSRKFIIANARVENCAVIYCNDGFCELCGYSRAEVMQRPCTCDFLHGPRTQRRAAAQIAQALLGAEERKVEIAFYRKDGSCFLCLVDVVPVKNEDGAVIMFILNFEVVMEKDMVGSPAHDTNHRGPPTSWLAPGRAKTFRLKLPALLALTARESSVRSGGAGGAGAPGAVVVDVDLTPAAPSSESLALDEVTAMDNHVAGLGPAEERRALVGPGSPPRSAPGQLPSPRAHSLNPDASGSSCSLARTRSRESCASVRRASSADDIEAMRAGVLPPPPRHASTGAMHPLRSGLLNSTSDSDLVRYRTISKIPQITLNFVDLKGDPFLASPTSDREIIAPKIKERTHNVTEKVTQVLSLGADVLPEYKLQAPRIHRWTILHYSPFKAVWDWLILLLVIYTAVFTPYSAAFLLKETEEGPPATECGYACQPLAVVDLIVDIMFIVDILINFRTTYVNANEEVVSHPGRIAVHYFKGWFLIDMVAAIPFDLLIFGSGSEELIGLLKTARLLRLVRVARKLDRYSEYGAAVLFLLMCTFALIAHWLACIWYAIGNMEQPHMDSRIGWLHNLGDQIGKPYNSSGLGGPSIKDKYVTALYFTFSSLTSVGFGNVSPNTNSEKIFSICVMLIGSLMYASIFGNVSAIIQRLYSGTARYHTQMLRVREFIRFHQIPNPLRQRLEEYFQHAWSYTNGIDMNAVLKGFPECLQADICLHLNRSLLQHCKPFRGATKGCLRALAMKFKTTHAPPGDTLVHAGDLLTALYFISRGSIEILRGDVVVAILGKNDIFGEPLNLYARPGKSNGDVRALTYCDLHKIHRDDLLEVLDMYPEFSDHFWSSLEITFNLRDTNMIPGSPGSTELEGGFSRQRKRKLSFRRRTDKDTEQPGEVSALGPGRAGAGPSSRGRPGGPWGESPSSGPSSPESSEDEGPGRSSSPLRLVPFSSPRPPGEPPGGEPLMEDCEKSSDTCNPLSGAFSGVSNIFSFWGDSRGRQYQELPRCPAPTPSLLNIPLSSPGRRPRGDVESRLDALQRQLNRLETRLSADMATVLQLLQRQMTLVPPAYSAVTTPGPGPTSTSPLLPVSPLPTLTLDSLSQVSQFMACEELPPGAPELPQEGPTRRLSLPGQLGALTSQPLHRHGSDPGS

With `C=C(C)C(=O)NCCOc1c(N)ncnc1-c1cc(F)cc(NC(=O)c2sc3c(c2F)CC2(CC2)C3)c1C` [Example 26-1, N-(3-(6-amino-5-(2-(N-methacrylamido)ethoxy)pyrimidin-4-yl)-5-fluoro-2-methylphenyl)-3-fluoro-4,6-dihydrospiro[cyclopenta[b]thiophene-5,1'-cyclopropane]-2-carboxamide] as the molecule, how does the IC50 read?
The IC50 was 14 µM.
